# According to US20100292210A1, “Novel Compounds for A-Beta-Related Pathologies” (AstraZeneca AB, priority 2009, published 2010):
# System: Aβ42 release
# Assay: Aβ42 release from HEK cells stably expressing APPswe, Meso Scale Discovery electrochemiluminescence assay
# Format: cell-based
# Details: Homo sapiens, HEK293; HEK cell line stably expressing APPswe; 4-6 h incubation with test compound; Aβ42 secreted to cell medium; read-out: pIC50 values of Aβ42 release (converted)
# Protocol: The level of activity of the compounds on Aβ formation was tested using the following method:
# Compounds were diluted in 100% DMSO and stored at […] prior to use. Human Embryonic Kidney (HEK) cell line stably expressing APP with the Swedish mutation (APPswe) were cultured using Dulbecco's Modified Eagles medium (DMEM) supplied with […] glucose, Na-pyruvate and GlutaMAX with 10% FBS, 100 U/ml penicillin-streptomycin (PEST) respectively, 1×non-essential amino acids (NEAA), […], 100 μg/ml Zeocine. Cells at about 80% confluence were washed with PBS, detached from culture flasks using 1×Trypsin/EDTA diluted in PBS, re-suspended in cell media and plated in 384-well poly-d-lysine coated cell culture plates at about 10000-15000 cells/well, in 25 μL cell media. Optionally, cryo-preserved cells (frozen and stored at −140° C. in 90% cell media and 10% DMSO) were thawed, washed and plated as above. Next the cells were incubated for 15-24 h at 37° C. and 5% CO2, after which cell medium was changed. Fresh medium containing test compound diluted ×200 from prepared compound plate was added to the cells before further incubation for 4-6 hours at 37° C. and 5% CO2. After incubation with test compound the amount of Aβ peptides, including Aβ42, Aβ40, Aβ39, Aβ38 and Aβ37, secreted to cell medium was analyzed using the electrochemiluminescence assay technology from Meso Scale Discovery Technology, in combination with specific antibodies raised against the different Aβ peptides. Potential cytotoxic effects of the compounds were usually assayed by measuring the ATP content (ViaLight) from cell lysate.
row,Compound,IC50
1,"Cc1nccn1-c1ccc(Nc2ccc3c(n2)N(C2CCCC2)CCN(C)C3=O)cc1 [Example 25, 1-cyclopentyl-4-methyl-8-(4-(2-methyl-1H-imidazol-1-yl)phenylamino)-3,4-dihydro-1H-pyrido[2,3-e][1,4]diazepin-5(2H)-one]",5.01 µM
2,"OCCN1Cc2ccc(Nc3ccc(-c4nnc5n4CCC5)cc3)nc2O[C@H](c2ccccc2)C1 [Example 26, (R)-2-(8-(4-(6,7-Dihydro-5H-pyrrolo[2,1-c][1,2,4]triazol-3-yl)phenylamino)-2-phenyl-2,3-dihydropyrido[3,2-f][1,4]oxazepin-4(5H)-yl)ethanol]",20 µM
3,"Cc1cc(C2CN(CC#N)Cc3ccc(Nc4ccc(-n5ccnc5C)cc4)nc3O2)n(C)n1 (stereo not shown) [Example 27, 2-(2-(1,3-Dimethyl-1H-pyrazol-5-yl)-8-(4-(2-methyl-1H-imidazol-1-yl)phenylamino)-2,3-dihydropyrido[3,2-f][1,4]oxazepin-4(5H)-yl)acetonitrile]",7.94 µM
4,"CN1CC(c2ccccc2)Oc2nc(Oc3ccc(-n4ccnc4)cc3)ncc2C1=O (stereo not shown) [Example 28, 2-(4-(1H-Imidazol-1-yl)phenoxy)-6-methyl-8-phenyl-7,8-dihydropyrimido[5,4-f][1,4]oxazepin-5(6H)-one]",6.31 µM
5,"COc1cc(Nc2ccc3c(n2)O[C@H](c2ccccc2)CN(CCO)C3)ccc1C#N [Example 29, (R)-4-(4-(2-Hydroxyethyl)-2-phenyl-2,3,4,5-tetrahydropyrido[3,2-f][1,4]oxazepin-8-ylamino)-2-methoxybenzonitrile]",1.26 µM
6,"Cc1cncn1-c1ccc(Nc2ccc3c(n2)O[C@H](c2ccccc2)CN(CCO)C3)cc1 [Example 30, (R)-2-(8-(4-(5-methyl-1H-imidazol-1-yl)phenylamino)-2-phenyl-2,3-dihydropyrido[3,2-f][1,4]oxazepin-4(5H)-yl)ethanol]",0.631 µM
7,"COc1cc(Nc2ccc3c(n2)OC(COC(C)C)CN(C(C)=O)C3)ccc1-n1cnc(C)c1 (stereo not shown) [Example 31, 1-(2-(Isopropoxymethyl)-8-(3-methoxy-4-(4-methyl-1H-imidazol-1-yl)phenylamino)-2,3-dihydropyrido[3,2-f][1,4]oxazepin-4(5H)-yl)ethanone]",0.631 µM
8,"OCCN1Cc2ccc(Nc3ccc(-n4cncn4)c(Cl)c3)nc2O[C@H](c2ccccc2)C1 [Example 32, (R)-2-(8-(3-Chloro-4-(1H-1,2,4-triazol-1-yl)phenylamino)-2-phenyl-2,3-dihydropyrido[3,2-f][1,4]oxazepin-4(5H)-yl)ethanol]",0.501 µM
9,"COc1cc(Nc2ccc3c(n2)OC(c2cc(C)nn2C)CN(CC#N)C3)ccc1-n1cnc(C)c1 (stereo not shown) [Example 33, 2-(2-(1,3-Dimethyl-1H-pyrazol-5-yl)-8-(3-methoxy-4-(4-methyl-1H-imidazol-1-yl)phenylamino)-2,3-dihydropyrido[3,2-f][1,4]oxazepin-4(5H)-yl)acetonitrile]",0.316 µM
10,"COc1cc(Nc2ccc3c(n2)O[C@H](c2ccccc2)CN(CCO)C3)ccc1-n1cncc1C [Example 34, (R)-2-(8-(3-Methoxy-4-(5-methyl-1H-imidazol-1-yl)phenylamino)-2-phenyl-2,3-dihydropyrido[3,2-f][1,4]oxazepin-4(5H)-yl)ethanol]",0.251 µM
11,"COc1cc(Nc2ccc3c(n2)OC(COC(C)C)CN(C)C3)ccc1-n1cnc(C)c1 (stereo not shown) [Example 35, 2-(Isopropoxymethyl)-N-(3-methoxy-4-(4-methyl-1H-imidazol-1-yl)phenyl)-4-methyl-2,3,4,5-tetrahydropyrido[3,2-f][1,4]oxazepin-8-amine]",0.2 µM
12,"COc1cc(Nc2ccc3c(n2)OC(c2ccccn2)CN(CC#N)C3)ccc1-n1cnc(C)c1 (stereo not shown) [Example 36, 2-(8-(3-Methoxy-4-(4-methyl-1H-imidazol-1-yl)phenylamino)-2-(pyridin-2-yl)-2,3-dihydropyrido[3,2-f][1,4]oxazepin-4(5H)-yl)acetonitrile]",0.158 µM
13,"COc1cc(Nc2ccc3c(n2)OC(c2ccccn2)CN(C)C3)ccc1-n1cnc(C)c1 (stereo not shown) [Example 37, N-(3-Methoxy-4-(4-methyl-1H-imidazol-1-yl)phenyl)-4-methyl-2-(pyridin-2-yl)-2,3,4,5-tetrahydropyrido[3,2-f][1,4]oxazepin-8-amine]",0.126 µM
14,"COc1cc(Nc2cnc3c(n2)O[C@H](c2ccccc2)CN(CC#N)C3)ccc1-n1cnc(C)c1 [Example 38, (R)-2-(3-(3-methoxy-4-(4-methyl-1H-imidazol-1-yl)phenylamino)-6-phenyl-6,7-dihydropyrazino[2,3-f][1,4]oxazepin-8(9H)-yl)acetonitrile]",0.1 µM
15,"COc1cc(Nc2cnc3c(n2)O[C@H](c2ccccc2)CN(C)C3)ccc1-n1cnc(C)c1 [Example 39, (R)—N-(3-Methoxy-4-(4-methyl-1H-imidazol-1-yl)phenyl)-8-methyl-6-phenyl-6,7,8,9-tetrahydropyrazino[2,3-f][1,4]oxazepin-3-amine]",0.0794 µM
16,"COc1cc(Nc2ccc3c(n2)O[C@H](c2ccccc2)CN(C(=O)N(C)C)C3)ccc1-n1cnc(C)c1 [Example 40, (R)-8-(3-Methoxy-4-(4-methyl-1H-imidazol-1-yl)phenylamino)-N,N-dimethyl-2-phenyl-2,3-dihydropyrido[3,2-f][1,4]oxazepine-4(5H)-carboxamide]",0.0501 µM
17,"COc1cc(Nc2ccc3c(n2)O[C@H](c2ccccc2)CN(CCO)C3)ccc1-n1cnc(C)n1 [Example 41, (R)-2-(8-(3-Methoxy-4-(3-methyl-1H-1,2,4-triazol-1-yl)phenylamino)-2-phenyl-2,3-dihydropyrido[3,2-f][1,4]oxazepin-4(5H)-yl)ethanol]",0.0398 µM
18,"Cc1cn(-c2ccc(Nc3ccc4c(n3)O[C@H](c3ccccc3)CN(CCO)C4)cc2)cn1 [Example 42, (R)-2-(8-(4-(4-Methyl-1H-imidazol-1-yl)phenylamino)-2-phenyl-2,3-dihydropyrido[3,2-f][1,4]oxazepin-4(5H)-yl)ethanol]",0.0316 µM
19,"COc1cc(Nc2ccc3c(n2)O[C@H](c2ccccc2)CN(CCO)C3)cnc1-n1cnc(C)c1 [Example 43, (R)-2-(8-(5-methoxy-6-(4-methyl-1H-imidazol-1-yl)pyridin-3-ylamino)-2-phenyl-2,3-dihydropyrido[3,2-f][1,4]oxazepin-4(5H)-yl)ethanol]",0.0316 µM
20,"COc1cc(Nc2ccc3c(n2)O[C@H](c2ccccc2)CN(C)C3)ccc1-n1cnc(C)n1 [Example 44, (R)—N-(3-Methoxy-4-(3-methyl-1H-1,2,4-triazol-1-yl)phenyl)-4-methyl-2-phenyl-2,3,4,5-tetrahydropyrido[3,2-f][1,4]oxazepin-8-amine]",0.0316 µM
21,"COc1cc(Nc2ccc3c(n2)O[C@H](c2ccccc2)CN(C2CC2)C3)ccc1-n1cnc(C)n1 [Example 45, (R)-4-Cyclopropyl-N-(3-methoxy-4-(3-methyl-1H-1,2,4-triazol-1-yl)phenyl)-2-phenyl-2,3,4,5-tetrahydropyrido[3,2-f][1,4]oxazepin-8-amine]",0.0251 µM
22,"COc1cc(Nc2ccc3c(n2)OC(c2ccccc2)CN(CCO)C3)ccc1-n1cnc(C)c1 (stereo not shown) [Example 46, 2-(8-(3-Methoxy-4-(4-methyl-1H-imidazol-1-yl)phenylamino)-2-phenyl-2,3-dihydropyrido[3,2-f][1,4]oxazepin-4(5H)-yl)ethanol]",0.0251 µM
23,"COc1cc(Nc2ccc3c(n2)O[C@H](c2ccccc2)CN(CC#N)C3)ccc1-n1cnc(C)c1 [Example 47, (R)-2-(8-(3-Methoxy-4-(4-methyl-1H-imidazol-1-yl)phenylamino)-2-phenyl-2,3-dihydropyrido[3,2-f][1,4]oxazepin-4(5H)-yl)acetonitrile]",0.0158 µM
24,"Cc1ncn(-c2ccc(Nc3ccc4c(n3)O[C@H](c3ccccc3)CN(C)C4)cc2)n1 [Example 48, (R)-4-Methyl-N-(4-(3-methyl-1H-1,2,4-triazol-1-yl)phenyl)-2-phenyl-2,3,4,5-tetrahydropyrido[3,2-f][1,4]oxazepin-8-amine]",0.1 µM
25,"COc1cc(Nc2ccc3c(n2)OC(C2CC2)CN(C)C3)ccc1-n1cnc(C)c1 (stereo not shown) [Example 49, 2-Cyclopropyl-N-(3-methoxy-4-(4-methyl-1H-imidazol-1-yl)phenyl)-4-methyl-2,3,4,5-tetrahydropyrido[3,2-f][1,4]oxazepin-8-amine]",0.1 µM
26,"COc1nc(Nc2ccc3c(n2)O[C@H](c2ccccc2)CN(C)C3)ccc1-c1cnn(C)c1 [Example 50, (R)—N-(6-Methoxy-5-(1-methyl-1H-pyrazol-4-yl)pyridin-2-yl)-4-methyl-2-phenyl-2,3,4,5-tetrahydropyrido[3,2-f][1,4]oxazepin-8-amine]",0.00794 µM
27,"COc1cc(Nc2ccc3c(n2)OC(C2CC2)CN(C)C3)ccc1-n1cnc(C)n1 (stereo not shown) [Example 51, 2-Cyclopropyl-N-(3-methoxy-4-(3-methyl-1H-1,2,4-triazol-1-yl)phenyl)-4-methyl-2,3,4,5-tetrahydropyrido[3,2-f][1,4]oxazepin-8-amine]",0.501 µM
28,"COc1cc(Nc2ccc3c(n2)OC(c2cccc(C)n2)CN(C)C3)ccc1-n1cnc(C)n1 (stereo not shown) [Example 52, N-(3-Methoxy-4-(3-methyl-1H-1,2,4-triazol-1-yl)phenyl)-4-methyl-2-(6-methylpyridin-2-yl)-2,3,4,5-tetrahydropyrido[3,2-f][1,4]oxazepin-8-amine]",0.398 µM
